Experimental data taken from patent US7745483B2, “2-Halofuryl-thienyl-3-carboxamides” (Bayer CropScience AG, priority 2004, dated 2010).

How the values were obtained:
[1] = logP determination by HPLC on a reverse-phase column (EEC Directive 79/831 Annex V.A8); type: physicochemical; details: pH 2.3, reverse-phase column (C 18), 43° C.; for chromatographic logP: reverse-phase HPLC column (C 18)
Experimental: The logP values given were determined in accordance with EEC Directive 79/831 Annex V.A8 by HPLC (High Performance Liquid Chromatography) on a reverse-phase column (C 18). Temperature: 43° C. Mobile phases for the determination in the acidic range (pH 2.3): 0.1% aqueous phosphoric acid, acetonitrile; linear gradient from 10% acetonitrile to 90% acetonitrile. Calibration was carried out using unbranched alkan-2-ones (having 3 to 16 carbon atoms) with known logP values (determination of logP values by retention times using linear interpolation between two successive alkanones).

[2] = tested on: Botrytis cinerea; test: Botrytis test (bean)/protective; type: in vivo; details: 48 h, protective, application rate 500 g/ha, evaluation 2 days after inoculation, read-out: Efficacy in %
Experimental: [table] To produce a suitable preparation of active compound, 1 part by weight of active compound was mixed with the stated amounts of solvent and emulsifier, and the concentrate was diluted with water to the desired concentration. To test for protective activity, young plants are sprayed with the preparation of active compound at the stated application rate. After the spray coating has dried on, 2 small pieces of agar colonized by Botrytis cinerea are placed onto each leaf. The inoculated plants are placed in a dark chamber at about 20° C. and 100% relative atmospheric humidity. The size of the infected areas on the leaves is evaluated 2 days after the inoculation. 0% means an efficacy which corresponds to that of the control, whereas an efficacy of 100% means that no infection is observed.

logP [1] | Structure (SMILES) | pest or weed control at 500 g/ha [2] [%] | further results
– | CC(C)CC(C)c1ccccc1NC(=O)c1ccsc1I (stereo not shown) [Example 1, N-[2-(1,3-dimethylbutyl)phenyl]-2-iodothiophene-3-carboxamide] | – | chromatographic logP [1]: 4.14
– | CC(C)CC(C)c1ccccc1NC(=O)c1ccoc1I (stereo not shown) [Example 2, N-[2-(1,3-dimethylbutyl)phenyl]-2-iodo-3-furamide] | – | chromatographic logP [1]: 3.88
3.72 | O=C(Nc1ccccc1-c1ccc(Br)cc1)c1ccoc1I [Example 3] | – | –
3.58 | O=C(Nc1ccccc1-c1ccc(Br)c(F)c1)c1ccoc1I [Example 4] | – | –
4.57 | C=C(CC(C)C)c1ccccc1NC(=O)c1ccsc1I [Example 5] | – | –
4.42 | CC(CC(C)(C)C)c1ccccc1NC(=O)c1ccsc1I (stereo not shown) [Example 6] | – | –
4.16 | CC(CC(C)(C)C)c1ccccc1NC(=O)c1ccoc1I (stereo not shown) [Example 7] | – | –
3.93 | O=C(Nc1ccccc1-c1ccc(Cl)cc1)c1ccsc1I [Example 8] | – | –
3.82 | O=C(Nc1ccccc1-c1ccc(Cl)c(F)c1)c1ccsc1I [Example 9] | – | –
3.89 | O=C(Nc1ccccc1-c1ccc(Cl)c(Cl)c1)c1ccoc1I [Example 10] | – | –
3.62 | O=C(Nc1ccccc1-c1ccc(Cl)cc1)c1ccoc1I [Example 11] | – | –
4.11 | O=C(Nc1ccccc1-c1ccc(Cl)c(Cl)c1)c1ccsc1I [Example 13] | – | –
4.78 | C=C(CC(C)(C)C)c1ccccc1NC(=O)c1ccsc1I [Example 14] | – | –
4.49 | C=C(CC(C)(C)C)c1ccccc1NC(=O)c1ccoc1I [Example 15] | – | –
4.18 | O=C(Nc1ccccc1-c1ccc(C(F)(F)F)cc1Cl)c1ccsc1I [Example 19] | – | –
4.17 | CC(C)(C)CCc1ccccc1NC(=O)c1ccsc1I [Example 20] | – | –
4.28 | O=C(Nc1ccccc1-c1ccc(Br)cc1Cl)c1ccsc1I [Example 21] | – | –
3.89 | O=C(Nc1ccccc1-c1ccc(Br)c(F)c1)c1ccsc1I [Example 22] | – | –
4.01 | O=C(Nc1ccccc1-c1cccc(Cl)c1Cl)c1ccsc1I [Example 23] | – | –
4.13 | O=C(Nc1ccc(F)cc1-c1ccc(Cl)c(Cl)c1)c1ccsc1I [Example 24] | – | –
3.89 | Cc1ccc(-c2ccccc2NC(=O)c2ccsc2I)cc1F [Example 25] | – | –
3.89 | O=C(Nc1ccccc1-c1ccc(C(F)(F)F)cc1)c1ccsc1I [Example 26] | – | –
4.24 | CC(C)CC(C)c1ccccc1NC(=O)c1ccsc1Br (stereo not shown) [Example 27] | – | –
4.51 | CC(CC(C)(C)C)c1ccccc1NC(=O)c1ccsc1Br (stereo not shown) [Example 28] | – | –
3.99 | O=C(Nc1ccccc1-c1ccc(Cl)cc1)c1ccsc1Br [Example 29] | – | –
4.25 | O=C(Nc1ccccc1-c1ccc(Cl)c(Cl)c1)c1ccsc1Br [Example 30] | – | –

logP [1] | Structure (SMILES) | pest or weed control at 500 g/ha [2] [%] | further results
3.91 | O=C(Nc1ccccc1-c1ccc(Cl)c(F)c1)c1ccsc1Br [Example 31] | – | –
4.21 | O=C(Nc1ccccc1-c1ccc(Br)c(Cl)c1)c1ccsc1I [Example 32] | – | –
3.67 | O=C(Nc1ccccc1-c1cccc(Cl)c1F)c1ccsc1I [Example 33] | – | –
2.20 | O=C(Nc1ccncc1-c1ccc(Cl)c(Cl)c1)c1ccsc1I [Example 34] | – | –
3.69 | O=C(Nc1ccc(F)cc1-c1cccc(Cl)c1F)c1ccsc1I [Example 35] | – | –
4.16 | CC(C)(C)CCc1cc(F)ccc1NC(=O)c1ccsc1I [Example 37] | – | –
3.79 | O=C(Nc1ccccc1-c1ccc(F)c(Cl)c1)c1ccsc1I [Example 38] | – | –
4.09 | CC1CC(C)(C)c2cccc(NC(=O)c3ccsc3I)c21 (stereo not shown) [Example 39] | – | –
3.79 | CON=Cc1ccc(-c2ccccc2NC(=O)c2ccsc2I)cc1F [Example 40] | – | –
4.17 | CC(C)CC(C)c1cc(F)ccc1NC(=O)c1ccsc1I (stereo not shown) [Example 41] | – | –
4.44 | CC(C)(C)CCc1sccc1NC(=O)c1ccsc1I [Example 42] | – | –
4.22 | CC(C)CC(C)c1sccc1NC(=O)c1ccsc1I (stereo not shown) [Example 43] | – | –
4.30 | CC(C)(C)CCc1cc(F)ccc1NC(=O)c1ccsc1Br [Example 44] | – | –
4.30 | CC(C)(C)CCc1ccccc1NC(=O)c1ccsc1Br [Example 45] | – | –
– | CC(C)CC(C)c1ccccc1NC(=O)c1ccsc1I (stereo not shown) [drawing 222] | 100 | –
– | CC(C)CC(C)c1ccccc1NC(=O)c1ccoc1I (stereo not shown) [drawing 223] | 99 | –
– | CC(CC(C)(C)C)c1ccccc1NC(=O)c1ccoc1I (stereo not shown) [drawing 224] | 100 | –
– | CC(CC(C)(C)C)c1ccccc1NC(=O)c1ccsc1I (stereo not shown) [drawing 225] | 100 | –
– | C[Si](C)(C)CCc1ccccc1NC(=O)c1ccsc1I [drawing 226] | 100 | –
– | O=C(Nc1ccccc1-c1ccc(C(F)(F)F)cc1Cl)c1ccsc1I [drawing 227] | 100 | –
– | O=C(Nc1ccncc1-c1ccc(Cl)c(Cl)c1)c1ccsc1I [drawing 228] | 100 | –
– | O=C(Nc1ccccc1-c1ccc(Br)cc1Cl)c1ccsc1I [drawing 229] | 100 | –
– | O=C(Nc1ccccc1-c1ccc(Br)c(F)c1)c1ccsc1I [drawing 230] | 100 | –
– | O=C(Nc1ccccc1-c1ccc(Br)c(Cl)c1)c1ccsc1I [drawing 231] | 100 | –
– | O=C(Nc1ccccc1-c1cccc(Cl)c1Cl)c1ccsc1I [drawing 232] | 100 | –
– | O=C(Nc1ccccc1-c1cccc(Cl)c1F)c1ccsc1I [drawing 233] | 100 | –

logP [1] | Structure (SMILES) | pest or weed control at 500 g/ha [2] [%] | further results
– | O=C(Nc1ccc(F)cc1-c1cccc(Cl)c1F)c1ccsc1I [drawing 234] | 100 | –
– | CC(C)(C)CCc1cc(F)ccc1NC(=O)c1ccsc1I [drawing 235] | 100 | –
– | O=C(Nc1ccccc1-c1ccc(Cl)cc1)c1ccoc1I [drawing 236] | 100 | –
– | O=C(Nc1ccccc1-c1ccc(Br)cc1)c1ccoc1I [drawing 237] | 100 | –
– | O=C(Nc1ccccc1-c1ccc(Cl)c(Cl)c1)c1ccoc1I [drawing 238] | 100 | –
– | O=C(Nc1ccccc1-c1ccc(Cl)c(F)c1)c1ccoc1I [drawing 239] | 100 | –
– | O=C(Nc1ccccc1-c1ccc(Cl)cc1)c1ccsc1I [drawing 240] | 100 | –
– | O=C(Nc1ccccc1-c1ccc(Br)cc1)c1ccsc1I [drawing 241] | 100 | –
– | O=C(Nc1ccccc1-c1ccc(Cl)c(Cl)c1)c1ccsc1I [drawing 242] | 100 | –
– | O=C(Nc1ccccc1-c1ccc(Cl)c(F)c1)c1ccsc1I [drawing 243] | 100 | –
– | CC(C[Si](C)(C)C)c1ccccc1NC(=O)c1ccoc1I (stereo not shown) [drawing 244] | 100 | –
– | CC(C[Si](C)(C)C)c1ccccc1NC(=O)c1ccsc1I (stereo not shown) [drawing 245] | 100 | –
– | O=C(Nc1ccccc1-c1ccc(C(F)(F)F)cc1)c1ccsc1I [drawing 246] | 100 | –
– | O=C(Nc1ccc(F)cc1-c1ccc(Cl)c(Cl)c1)c1ccsc1I [drawing 247] | 100 | –
– | Cc1ccc(-c2ccccc2NC(=O)c2ccsc2I)cc1F [drawing 248] | 100 | –
– | CC1CC(C)(C)c2cccc(NC(=O)c3ccsc3I)c21 (stereo not shown) [drawing 249] | 100 | –
– | CC(C)CC(C)c1cc(F)ccc1NC(=O)c1ccsc1I (stereo not shown) [drawing 250] | 100 | –
– | CO/N=C/c1ccc(-c2ccccc2NC(=O)c2ccsc2I)cc1F [drawing 251] | 100 | –
– | CC(C)CC(C)c1sccc1NC(=O)c1ccsc1I (stereo not shown) [drawing 252] | 100 | –
– | CC(C)CC(C)c1ccccc1NC(=O)c1ccsc1Br (stereo not shown) [drawing 253] | 100 | –
– | CC(CC(C)(C)C)c1ccccc1NC(=O)c1ccsc1Br (stereo not shown) [drawing 254] | 100 | –
– | O=C(Nc1ccccc1-c1ccc(Cl)cc1)c1ccsc1Br [drawing 255] | 100 | –
– | O=C(Nc1ccccc1-c1ccc(Cl)c(Cl)c1)c1ccsc1Br [drawing 256] | 100 | –
– | O=C(Nc1ccccc1-c1ccc(Cl)c(F)c1)c1ccsc1Br [drawing 257] | 100 | –
– | O=C(Nc1ccccc1-c1ccc(F)c(Cl)c1)c1ccsc1I [drawing 258] | 99 | –
– | C[Si](C)(C)CCc1sccc1NC(=O)c1ccsc1I [drawing 259] | 100 | –

Structure (SMILES) | logP [1] | pest or weed control at 500 g/ha [2] [%] | further results
CC(C[Si](C)(C)C)c1ccccc1NC(=O)c1ccoc1I (stereo not shown) [Example 16] | 4.45 | – | –
CC(C[Si](C)(C)C)c1ccccc1NC(=O)c1ccsc1I (stereo not shown) [Example 17] | 4.69 | – | –
C[Si](C)(C)CCc1ccccc1NC(=O)c1ccsc1I [Example 18] | 4.43 | – | –
CC(C[Si](C)(C)C)c1cc(F)ccc1NC(=O)c1ccsc1I (stereo not shown) [Example 36] | 4.67 | – | –
